Patent publication US20230203482A1, “Methods of Rescuing Stop Codons via Genetic Reassignment with ACE-tRNA” (THE WISTAR INSTITUTE OF ANATOMY AND BIOLOGY, priority 2017, published 2023)

B1: Glychr19.trna2: top performing glycine ACE-tRNA UGA suppressor, SEQ ID NO: 53 (nucleic acid)
chain: GCGTTGGTGGTATAGTGGTTAGCATAGCTGCCTTCAAAGCAGTTGACCCGGGTTCGATTCCCGGCCAACGCA
modifications: chemistry not fully specified

System: NLuc-UGA PTC
Test: NanoLuc nonsense reporter screen (all-in-one HTC plasmid), TGA/UGA PTC, HEK293 cells
Format: cell-based, human
Settings: for stop codon selectivity (NanoLuc TGA, TAA or TAG reporter): transiently transfected HEK293 cells
Description: Several different nonsense mutations cause CF, thus underlying roughly 10% of all CF disease. FIG. 7. These cases are concentrated into […] specific genetic lesions: E60X, R75X, G542X, R553X, Q890X, Y1092X, R1158X, R1162X and W1282X. A screen was developed to screen existing human tRNA sequences for modification and tolerance to anti-codon editing. To this end, roughly 144 ACE-tRNAs were candidates to test for those that could be used to promote the repair of the disease causative nonsense codon and the expression of the full-length protein. Specifically, using the scheme described in FIG. 11, tRNA libraries were generated to identify novel tRNA sequences that encode for ACE tRNA with the ability to repair the top CF causative nonsense mutations. Specifically, 10 ng of annealed oligos encoding the ACE-tRNAs were combined with 50 ng of NanoLuc reporter plasmid, 1 μl 10×CutSmart Buffer (NEB), 1 μl T4 ligase (NEB), 10 mM ATP and 1 μl BbsI (NEB) and cycled in a thermocycler as described in FIG. 11. 1 μl of the reaction was transformed into competent E. coli and the transformants were plated on ampicillin agar plates. One transformant was picked per plate was picked, grown in 1 ml of LB under ampicillin selection, miniprepped and sequence verified.
Screening studies were first performed to identify the best ACE-tRNA Candidates from tryptophan and glycine. 125 ng of sequence verified miniprep cDNA of NanoLuc reporter plasmid with ACE-tRNA was transfected into HEK cells using calcium phosphate. HEK cells were plated in 96 well plates at 4×10^4 the day prior. 24 hours after transfection the media was replaced with 20 μl of PBS and 15 μl of NanoGlo reagent (Promega) was added. Plates were read on a SpectraMax i3 (Molecular Devices). Data are of replicates of 3 or greater. FIG. 8.
FIG. 10. An additional modification of the tRNA was made to further enable their function for the purpose of suppression of nonsense codons and the promotion of protein expression. […] To this end, single and double mutations were directly engineered into the t-stem loop of tRNA Trpchr17.trna39—an ACE-tRNA identified with activity for the rescue of tryptophan TGA nonsense codons. Thirty-eight tRNA t-stem variants were thus generated and screened in HEK cells transiently transfected with the nonsense rescue reporter construct shown in FIG. 4. […] This is a generalizable modification, that is, new tRNA sequences identified, by example 1 and 2, can be made better (for their ability to rescue nonsense codons) through further rationale modifications. Such approaches aid in the therapeutic utility of ACE-tRNA directed to tissue types with low abundance target RNA or where tRNA delivery may be limiting.
In order to enable the identification of the nucleotide composition and functional ability to suppress nonsense codons by new types of tRNA, an All-In-One Plasmid With A One Pot Cloning Reaction was invented for High Throughput Cloning FIG. 11. This approach enables the facile investigation of ACE-tRNA activity via luciferase activity in a standard 96 well format. Briefly, synthetic nucleotide sequences encoding for tRNA are ligated into the NanoLuc Reporter plasmid, with an example of the TGA nonsense reporter plasmid variant shown in FIG. 11. […] and TAG (amber) stop codon rescue vectors have been successfully designed and implemented in FIGS. 16-19. The benefits are the approach is that DNA oligos encoding for tRNA libraries can be ligated in the NanoLuc reporter plasmid with the presence of the restriction enzyme and ligase with the reaction pushed to nearly 100% incorporation of tRNA insert (FIG. 11)-thus the ‘one-pot’ designation. The reaction is transformed into E. coli, with the resultant cDNA purified by standard methods. […]

Molecule | Ranking (Table 7, Trp TGA) | stop codon selectivity (NanoLuc TGA, TAA or TAG reporter) (listed as ACE-tRNA^Trp) | Ranking (Table 8, Gly TGA) | stop codon selectivity (NanoLuc TGA, TAA or TAG reporter) (listed as Glychr19.t2)
Trpchr17.trna39: top performing tryptophan ACE-tRNA UGA suppressor, SEQ ID NO: 48 | #1 | Stop codon specificity is maintained | – | –
B1 | – | – | #1 | selectively suppresses the UGA stop codon
